Measured values reported in publication PMC9118553, “In Vivo Bioconcentration of 10 Anionic Surfactants in Rainbow Trout Explained by In Vitro Data on Partitioning and S9 Clearance” (Environmental Science & Technology, 2022).
Where “and” joins values, the source holds several entries; their conditions need not be identical. Equal entries are not always repeated. Where two headings read alike, the source gives them in different places. Marks after values point to notes of the source that are not given here.

Experiments:
[1] = cited from earlier work; for log DMW, membrane-water distribution ratio: marked * = measured, used for IVIVE, same values as Table 3
rainbow trout = assay: In vivo bioconcentration experiment with a mixture of anionic surfactants, flow-through aquaria, 10 °C, pH 7.8; settings: for Log BCF: determined with measured concentrations in water; for Concentration in fish: individual fish; for BCF (kinetic): kinetic BCF from measured concentrations in water
Method in brief: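 Juvenile rainbow trout exposed to a 10-surfactant mixture for 4 days, then 7-day depuration, in flow-through aquaria at 10 °C, pH 7.8. Whole-fish homogenates and water analysed by LC-MS/MS against BEHP internal standard. kU, kT and BCF (=kU/kT) estimated by joint Bayesian model including water-concentration uncertainty.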

[2] = Baseline screening BCF (0.0125 DMLW, equilibrium partitioning, no biotransformation); settings: for Log baseline BCF: determined as 0.0125 DMLW
Method in brief: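 Calculated rather than measured: baseline screening BCF derived as 0.0125 × DMLW (membrane-lipid/water distribution ratio), assuming equilibrium partitioning and no biotransformation. Expressed as log L kg-1 wet weight.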

[3] = determined using nominal concentrations in water
[4] = from measured concentrations in water, Bayesian estimate, 95% credible interval in brackets
[5] = 95% credible interval in brackets
[6] = measured concentrations in water, simpler estimation method (Text S3), 95% confidence intervals in brackets

| Log BCF (rainbow trout) [L kg-1 ww] | Structure (SMILES) | log DMW, membrane-water distribution ratio [1] | Concentration in fish (rainbow trout; elimination phase, 97 h) | Concentration in fish (rainbow trout; elimination phase, 98 h) | Concentration in fish (rainbow trout; elimination phase, 100 h) | Concentration in fish (rainbow trout; elimination phase, 103 h) | Concentration in fish (rainbow trout; elimination phase, 120 h) | Concentration in fish (rainbow trout; elimination phase, 128 h) | Concentration in fish (rainbow trout; elimination phase, 144 h) | Concentration in fish (rainbow trout; elimination phase, 168 h) | Concentration in fish (rainbow trout; elimination phase, 192 h) | Concentration in fish (rainbow trout; elimination phase, 264 h) | Concentration in fish (rainbow trout; exposure phase, 1 h) | Concentration in fish (rainbow trout; exposure phase, 2 h) | Concentration in fish (rainbow trout; exposure phase, 3 h) | Concentration in fish (rainbow trout; exposure phase, 4 h) | Concentration in fish (rainbow trout; exposure phase, 6 h) | Concentration in fish (rainbow trout; exposure phase, 24 h) | Concentration in fish (rainbow trout; exposure phase, 48 h) | Concentration in fish (rainbow trout; exposure phase, 72 h) | further results |
| --- | --- | --- | --- | --- | --- | --- | --- | --- | --- | --- | --- | --- | --- | --- | --- | --- | --- | --- | --- | --- | --- |
| 1.47 | CCCCCCCCCCCCCCS(=O)(=O)O [C14SO3, tetradecylsulfonate] | 4.95 | 113 ng g-1 ww and 118 ng g-1 ww and 164 ng g-1 ww | 130 ng g-1 ww and 119 ng g-1 ww and 109 ng g-1 ww | 185 ng g-1 ww and 93 ng g-1 ww and 114 ng g-1 ww | 94 ng g-1 ww and 194 ng g-1 ww and 108 ng g-1 ww | 62 ng g-1 ww and 81 ng g-1 ww and 50 ng g-1 ww | 60 ng g-1 ww and 45 ng g-1 ww and 68 ng g-1 ww | 42 ng g-1 ww and 31 ng g-1 ww and 70 ng g-1 ww | 30 ng g-1 ww and 28 ng g-1 ww and 16.5 ng g-1 ww | 11.9 ng g-1 ww and 8.6 ng g-1 ww and 12.7 ng g-1 ww | 6.6 ng g-1 ww and 4.8 ng g-1 ww and 1.75 ng g-1 ww | 38 ng g-1 ww and 7.5 ng g-1 ww and 72 ng g-1 ww | 11.3 ng g-1 ww and 11.7 ng g-1 ww and 6.8 ng g-1 ww | 16.0 ng g-1 ww and 19.9 ng g-1 ww and 15.9 ng g-1 ww | 27 ng g-1 ww and 153 ng g-1 ww and 415 ng g-1 ww | 41 ng g-1 ww and 39 ng g-1 ww and 32 ng g-1 ww | 101 ng g-1 ww and 111 ng g-1 ww and 80 ng g-1 ww | 152 ng g-1 ww and 155 ng g-1 ww and 117 ng g-1 ww | 180 ng g-1 ww and 141 ng g-1 ww and 103 ng g-1 ww | log DMLW ([1]; measurement from Droge): 4.95 ^e L kg^–1; BCF (rainbow trout; [3]): 32 L kg-1 ww; Elimination rate constant kT (rainbow trout; [3]): 0.028 h⁻¹; Uptake rate constant kU (rainbow trout; [3]): 0.90 L/kg/h; Concentration in fish (rainbow trout; exposure phase, 96 h): 168 ng g-1 ww and 150 ng g-1 ww and 178 ng g-1 ww; Elimination rate constant kT (rainbow trout; [4]): 0.024 (0.022–0.026) h^–1; Uptake rate constant kU (rainbow trout; [4]): 0.70 (0.61–0.80) L kg^–1 ww h^–1; diffusion coefficient (D) in the epithelial membrane of the gills (rainbow trout; in vivo): 3.1 × 10^–8 m h^–1; BCF (kinetic) (rainbow trout; [5]): 30 (26–33) L kg^–1 ww; BCF (rainbow trout; [6]): 28 (8) L kg-1 ww; Elimination rate constant kT (rainbow trout; [6]): 0.026 (5) h-1; Uptake rate constant kU (rainbow trout; [6]): 0.73 (6) L kg-1 ww h-1; Log difference (baseline BCF vs BCF) [2]: 1.58 L kg-1 ww; Log baseline BCF [2]: 3.05 L kg-1 ww |
| 3.14 | CCCCCCCCCCCCCCCCS(=O)(=O)O [C16SO3, hexadecylsulfonate] | 6.19 | 4206 ng g-1 ww and 4275 ng g-1 ww and 4280 ng g-1 ww | 3644 ng g-1 ww and 3202 ng g-1 ww and 3035 ng g-1 ww | 4355 ng g-1 ww and 3469 ng g-1 ww and 3603 ng g-1 ww | 3251 ng g-1 ww and 4192 ng g-1 ww and 3692 ng g-1 ww | 2630 ng g-1 ww and 4641 ng g-1 ww and 2805 ng g-1 ww | 3635 ng g-1 ww and 2712 ng g-1 ww and 2831 ng g-1 ww | 2859 ng g-1 ww and 2503 ng g-1 ww and 3401 ng g-1 ww | 2804 ng g-1 ww and 2276 ng g-1 ww and 2244 ng g-1 ww | 1669 ng g-1 ww and 1852 ng g-1 ww and 2440 ng g-1 ww | 1420 ng g-1 ww and 2150 ng g-1 ww and 967 ng g-1 ww | 440 ng g-1 ww and 319 ng g-1 ww and 614 ng g-1 ww | 300 ng g-1 ww and 304 ng g-1 ww and 147 ng g-1 ww | 347 ng g-1 ww and 392 ng g-1 ww and 451 ng g-1 ww | 510 ng g-1 ww and 1310 ng g-1 ww and 2283 ng g-1 ww | 557 ng g-1 ww and 678 ng g-1 ww and 649 ng g-1 ww | 2045 ng g-1 ww and 1698 ng g-1 ww and 1479 ng g-1 ww | 3941 ng g-1 ww and 3596 ng g-1 ww and 1879 ng g-1 ww | 1532 ng g-1 ww and 3782 ng g-1 ww and 3167 ng g-1 ww | Uptake rate constant kU (rainbow trout): 6.3 L kg^–1 h^–1; Concentration in fish (rainbow trout; exposure phase, 96 h): 3775 ng g-1 ww and 5248 ng g-1 ww and 3695 ng g-1 ww; Elimination rate constant kT (rainbow trout; [4]): 0.0047 (0.0026–0.0062) h^–1; Uptake rate constant kU (rainbow trout; [4]): 6.3 (5.3–7.4) L kg^–1 ww h^–1; diffusion coefficient (D) in the epithelial membrane of the gills (rainbow trout; in vivo): 1.6 × 10^–8 m h^–1; BCF (kinetic) (rainbow trout; [5]): 1370 (1070–2200) L kg^–1 ww; BCF (rainbow trout; [6]): 1480 (14) L kg-1 ww; Elimination rate constant kT (rainbow trout; [6]): 0.0073 (10) h-1; Uptake rate constant kU (rainbow trout; [6]): 10.8 (10) L kg-1 ww h-1; Log difference (baseline BCF vs BCF) [2]: 1.15 L kg-1 ww; Log baseline BCF [2]: 4.29 L kg-1 ww |

| Structure (SMILES) | Log BCF (rainbow trout) [L kg-1 ww] | log DMW, membrane-water distribution ratio [1] | Concentration in fish (rainbow trout; elimination phase, 97 h) | Concentration in fish (rainbow trout; elimination phase, 98 h) | Concentration in fish (rainbow trout; elimination phase, 100 h) | Concentration in fish (rainbow trout; elimination phase, 103 h) | Concentration in fish (rainbow trout; elimination phase, 120 h) | Concentration in fish (rainbow trout; elimination phase, 128 h) | Concentration in fish (rainbow trout; elimination phase, 144 h) | Concentration in fish (rainbow trout; elimination phase, 168 h) | Concentration in fish (rainbow trout; elimination phase, 192 h) | Concentration in fish (rainbow trout; elimination phase, 264 h) | Concentration in fish (rainbow trout; exposure phase, 1 h) | Concentration in fish (rainbow trout; exposure phase, 2 h) | Concentration in fish (rainbow trout; exposure phase, 3 h) | Concentration in fish (rainbow trout; exposure phase, 4 h) | Concentration in fish (rainbow trout; exposure phase, 6 h) | Concentration in fish (rainbow trout; exposure phase, 24 h) | Concentration in fish (rainbow trout; exposure phase, 48 h) | Concentration in fish (rainbow trout; exposure phase, 72 h) | further results |
| --- | --- | --- | --- | --- | --- | --- | --- | --- | --- | --- | --- | --- | --- | --- | --- | --- | --- | --- | --- | --- | --- |
| CCCCC(CC)COC(=O)CC(C(=O)OCC(CC)CCCC)S(=O)(=O)O (centres unmarked) [DOSS, bis(2-ethylhexyl)sulfosuccinate] | 0.15 | 4.58 | 69 ng g-1 ww and 70 ng g-1 ww | 25 ng g-1 ww and 34 ng g-1 ww | 92 ng g-1 ww and 49 ng g-1 ww and 45 ng g-1 ww | 35 ng g-1 ww and 33 ng g-1 ww | 14.2 ng g-1 ww and 36 ng g-1 ww and 13.5 ng g-1 ww | 15.7 ng g-1 ww and 17.8 ng g-1 ww | 4.1 ng g-1 ww and 6.4 ng g-1 ww and 24 ng g-1 ww | 2.3 ng g-1 ww and 7.9 ng g-1 ww and 3.0 ng g-1 ww | 0.75 ng g-1 ww and 4.2 ng g-1 ww and 0.92 ng g-1 ww | 4.5 ng g-1 ww and 2.9 ng g-1 ww and 0.40 ng g-1 ww | 10.9 ng g-1 ww and 5.8 ng g-1 ww and 17.8 ng g-1 ww | 11.0 ng g-1 ww and 7.5 ng g-1 ww | 17.4 ng g-1 ww and 15.2 ng g-1 ww | 21 ng g-1 ww and 42 ng g-1 ww and 106 ng g-1 ww | 32 ng g-1 ww and 25 ng g-1 ww | 59 ng g-1 ww and 41 ng g-1 ww | 66 ng g-1 ww and 56 ng g-1 ww | 59 ng g-1 ww and 78 ng g-1 ww | log DMLW ([1]; measurement from Droge et al.): 4.58 ^f L kg^–1; Uptake rate constant kU (rainbow trout): 0.090 L kg^–1 h^–1; BCF (rainbow trout; [3]): 3.0 L kg-1 ww; Uptake rate constant kU (rainbow trout; [3]): 0.169 L/kg/h; Concentration in fish (rainbow trout; exposure phase, 96 h): 62 ng g-1 ww and 67 ng g-1 ww; Uptake rate constant kU (rainbow trout; [4]): 0.090 (0.074–0.110) L kg^–1 ww h^–1; BCF (kinetic) (rainbow trout; [5]): 1.42 (1.22–1.66) L kg^–1 ww; BCF (rainbow trout; [6]): 1.37 (14) L kg-1 ww; Uptake rate constant kU (rainbow trout; [6]): 0.088 (9) L kg-1 ww h-1; BCF (rainbow trout; own values): 1.42 L kg^–1; diffusion coefficient (D) in the epithelial membrane of the gills (rainbow trout; solved from eq 3 with kU, DMLW, gill area, fish 0.024 kg, membrane density 1 kg L^–1): 9.3 × 10^–9 m h^–1; Log difference (baseline BCF vs BCF) [2]: 2.53 L kg-1 ww; Log baseline BCF [2]: 2.68 L kg-1 ww |
